Test results: patent publication US11376307B2, “Compositions and methods of treating cancer with glycomimetic peptides” (SUSAVION BIOSCIENCES, INC., priority 2018, dated 2022)
“Also recorded” adds a separate entry of the source. Like-named read-outs stand apart in the source and are kept apart here.

Key:
[1] = ref [90], cited from earlier work
[2] = target: T1, ASGPR-1 (Homo sapiens, UniProt P07306); conditions: ref [49]; cited from earlier work
T1 sequence (P07306 1-291): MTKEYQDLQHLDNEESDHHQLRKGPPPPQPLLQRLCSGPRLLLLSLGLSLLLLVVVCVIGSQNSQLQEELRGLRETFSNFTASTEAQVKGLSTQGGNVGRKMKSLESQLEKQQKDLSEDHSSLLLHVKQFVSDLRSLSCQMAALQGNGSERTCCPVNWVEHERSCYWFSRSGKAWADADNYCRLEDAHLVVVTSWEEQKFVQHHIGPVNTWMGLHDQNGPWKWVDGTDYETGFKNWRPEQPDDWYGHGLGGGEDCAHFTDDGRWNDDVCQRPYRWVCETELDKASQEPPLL

[3] = target: T2, human ASGPR-1 (Homo sapiens, UniProt P07306); assay: Solid-phase binding assay with recombinant receptors
T2 construct: The extracellular domains of receptors, which were fused with the Fc domain of immunoglobulin IgG; purchased R&D Systems
T2 sequence (P07306 62-291 limits assumed): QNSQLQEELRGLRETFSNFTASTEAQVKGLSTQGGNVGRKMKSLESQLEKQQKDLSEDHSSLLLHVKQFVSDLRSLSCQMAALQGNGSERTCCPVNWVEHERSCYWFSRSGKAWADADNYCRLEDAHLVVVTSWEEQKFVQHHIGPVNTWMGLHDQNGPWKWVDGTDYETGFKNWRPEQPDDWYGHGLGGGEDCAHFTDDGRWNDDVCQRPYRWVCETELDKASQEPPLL
Procedure: (§1) Binding Assays Solid-phase binding assays were performed with streptavidin-, protein A/G-, or Nickel-coated microtiter plates (Pierce). His-tagged or Fc-fusion recombinant receptors (R&D Systems, Minneapolis, Minn.) were reconstituted in PBS. Sufficient receptors were added to wells to saturate the coating. His-tagged receptors were added to each well at a 5-fold excess over the stated capacity of the Ni coating to minimize non-specific binding of the peptide. Wells were washed three times with binding buffer (25 mM Tris HCl, pH 7.4, 150 mM NaCl, 0.05% Tween-20) to remove unbound receptor and 50 μL of 2 μM biotinylated peptide in binding buffer were added and allowed to incubate for 1 h. The wells were washed four times with binding buffer and then incubated with 50 μL of 1 μg/mL streptavidin conjugated with peroxidase (Sigma-Aldrich) for 1 h. The wells were washed five times with binding buffer and 50 μL of peroxidase substrate (1-Step™ Ultra TMB, Pierce) were added. After several minutes to allow color development, the reaction was stopped with 50 μL 1 M H3PO4 and absorbance was measured at 450 nm. Bound streptavidin was quantitated by the specific activity of peroxidase (absorbance/ng protein conjugate/min) under the conditions of the assay.
(§2) Solid-phase binding assays were performed with recombinant human receptors. Three variations of the binding assay were used in this study, all of which allowed the arms of the tetravalent peptide to have full flexibility. (i) Biotinylated peptide was bound in microtiter wells coated with streptavidin and incubated with recombinant human receptors. After extensive washing, the bound receptor was measured by peroxidase conjugated to a receptor-specific antibody. (ii) The extracellular domains of receptors, which were fused with the Fc domain of immunoglobulin IgG, were bound in wells coated with protein A/G. Biotinylated peptide was incubated with the receptors and, after extensive washing, bound peptide was measured with streptavidin conjugated with peroxidase. Or (iii), recombinant receptors with a poly-His tag were bound to Nickel-coated wells and incubated with biotinylated peptide. svL4 and sv6D contain His residues (FIGS. 1A, 1C) and can bind to the Ni coating, which was minimized by adding sufficient poly-His-tagged receptor to saturate the Ni coating.

[4] = system: STING pathway; assay: THP1-Dual reporter cells, secreted luciferase; assay type: cell-based, human; conditions: medium of THP1 reporter cells
Procedure: FIGS. 12A-12B. Conjugation with cyclic dinucleotide. (FIG. 12A) The cyclic dinucleotide, c[G(2′,5′)p-2′-AHC-A(3′,5′)p] (CDN, AHC=6-aminohexylcarbamoyl), was conjugated to N-acetylated-sv6D by a carbodiimide reaction. (FIG. 12B) The conjugate delivers the activation factor at much lower concentrations. Human THP1 monocytes, engineered to detect activation of the type 1 IFN pathway (THP1-Dual™ Cells, InvivoGen, San Diego, Calif.), were incubated 20 hours with sv6D in RPMI 1640 medium containing 10% fetal bovine serum after adding the peptide CDN conjugate. The medium was recovered and then incubated with the luciferase detection reagent (Quanti-Luc™, InvivoGen) to assay for luciferase secreted in response to activation of the STING pathway. Photons were detected with a spectrofluorometer. […] The conjugate targets M2 macrophages and tumor cells that express CLEC10A and thus would produce IFN-β within the tumor microenvironment. […]
The ability of sv6D-CDN conjugates to induce activation of the STING pathway for production of type 1 interferons (IFN-α/β) was tested by incubating human THP1 monocytes that were genetically engineered as reporter cells (InvivoGen, San Diego, Calif.), with the conjugate. […] However, luciferase was detected in the medium of cells incubated with nanomolar concentrations of sv6D-CDN conjugate.

[5] = target: STING protein (Homo sapiens, UniProt Q86WV6); conditions: refs [108,109]; cited from earlier work
[6] = system: ID8 ovarian cancer cell line; assay: Murine model of ovarian cancer, sv6D and paclitaxel
Procedure: Combination study of sv6D and paclitaxel. (FIG. 8A) Female C57BL/6 mice were implanted with ID8 ovarian cancer cell line. […] Body weights of mice are shown as measured on day 58, after two weeks of alternate-day subcutaneous treatment with sv6D (0.1 nmol/g) or 3 intraperitoneal doses (days 45, 47 and 49) of 18 μg/g paclitaxel in cremophor. […] (FIG. 8B) Alternate-day injections of sv6D were initiated on day 50 with peptide alone or on day 100 to mice that were previously treated with paclitaxel between day 45 and 49. […] (FIG. 8C) Kaplan-Meier survival curves for mice treated with paclitaxel, sv6D or a combination of the two in which alternate-day subcutaneous injections of sv6D was started 50 days after paclitaxel treatment.
Cells of an ovarian epithelial cancer line, ID8 [110], were implanted into the peritoneal cavity of female C57BL/6 mice at a dose of 6×10^6 cells. All animals were weighed at least weekly throughout these studies. Accumulation of ascites was monitored by increase in body weight, and animals were euthanized when end-stage behavior was expressed. […] Kaplan-Meier survival curves were analyzed by the Mantel-Cox log-rank test.
A murine ovarian cancer cell line (ID8) was implanted into the peritoneal cavity of C57BL/6 female mice on day 0. […] Progression of the cancer was monitored by body weight of animals as an indication of ascites accumulation.

[7] = system: peritoneal immune cells; assay: Expansion of peritoneal cells after subcutaneous injection, flow cytometry; assay type: in vivo, C57BL/6 mice; conditions: 1 nmol/g s.c. on days 0, 2, 4; cells 24 h after each injection
Procedure: FIGS. 7A-7D. Expansion of peritoneal cells in C57BL/6 mice. Mice were injected subcutaneously at a dose of 1 nmol/g body weight of svL4, sv6D or svC1. Cells in each population recovered in a peritoneal lavage are expressed as cell counts (in thousands). Cells from three mice in each treatment group were pooled for analysis. The number of cells in each population was normalized to the average recovery of total cells from all groups. For each cell type, the left-hand, middle and right-hand set of bars represent samples from mice treated with svL4, sv6D or svC1, respectively. Mice were injected on days 0, 2 and 4, and cells were collected 24 h after each injection. Day 1, open bar; day 3, grey bar; day 5, black bar. Populations that express activation markers are indicated by an asterisk.
Flow Cytometry Healthy C57BL/6 male mice, 10 weeks old, were injected subcutaneously with peptides on alternate days. Peritoneal cells were isolated from mice 24 h after dosing by injecting ice cold PBS (containing 3% FBS) into the peritoneal cavity, gently massaging the abdomen, and then collecting the fluid, which was transferred into K2EDTA-treated tubes for evaluation of specific biomarkers. Cells from three mice in each group were pooled, counted and divided among FACS tubes (1×10^6 cells per tube). Cells were washed once in PBS containing 3% FBS, then stained with 0.25 to 1 μg of fluorescently conjugated antibody per 10^6 cells in 100 μL of buffer as recommended by the manufacturer (Table 1).
Cells were incubated with the antibodies for 30 min at 4° C. in the dark. Following staining, the cells were washed two times with PBS/3% FBS and immediately analyzed with a MACSQuant flow cytometer (Miltenyi Biotech, Inc., San Diego, Calif.). Compensation was performed using single stain tubes for each color present in the analysis as well as an unstained control sample. Collection of flow cytometric data and analysis with FlowJo software, version 10.0.6 (FlowJo, LLC, Ashland, Oreg.) were performed by Biomodels LLC (Watertown, Mass.).
To examine whether increases occurred in mature immune cells, peritoneal cells from Balb/c and C57BL/6 mice were analyzed by flow cytometry after cells were stained with the markers listed in Table 1. […] To explore this observation more extensively, svL4 or sv6D was injected into C57BL/6 mice on day 0, 2 or 4. Peritoneal cells were examined by flow cytometry 24 h after each injection. Shown in FIGS. 7A-7D are results expressed as cell counts for F4/80 CD11b CD86 (mature, active macrophages); CD11c (DCs); CD11c CD86 (activated DCs); CD4 CD69 (activated T cells); CD8 CD69 (activated cytotoxic T cells); NK1.1 CD3^+ CD69 (activated NKT cells); NK1.1 CD3^− CD69 (activated NK cells); CD19 (B cells); and CD19 CD73 CD80 CD273 (memory B cells). The numbers of these mature, activated cells continued to increase with each injection.

[8] = target: T3, recombinant human CLEC10A (Homo sapiens, UniProt Q8IUN9); assay: Solid-phase binding assay with recombinant receptors; conditions: biotinylated tetravalent peptide
T3 construct: The extracellular domains of receptors, which were fused with the Fc domain of immunoglobulin IgG; purchased R&D Systems
T3 sequence (Q8IUN9 61-316 limits assumed): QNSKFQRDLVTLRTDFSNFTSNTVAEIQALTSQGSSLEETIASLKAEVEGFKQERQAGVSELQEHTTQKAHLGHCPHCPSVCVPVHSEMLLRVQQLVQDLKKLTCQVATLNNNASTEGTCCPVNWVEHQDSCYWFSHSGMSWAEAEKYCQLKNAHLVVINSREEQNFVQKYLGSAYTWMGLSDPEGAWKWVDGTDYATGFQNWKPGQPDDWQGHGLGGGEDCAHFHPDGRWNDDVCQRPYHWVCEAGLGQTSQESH
Procedure: as §1, §2

[9] = photodynamic, read-out: IC50 concentration for cell killing

STING protein, sequence (Q86WV6 whole entry): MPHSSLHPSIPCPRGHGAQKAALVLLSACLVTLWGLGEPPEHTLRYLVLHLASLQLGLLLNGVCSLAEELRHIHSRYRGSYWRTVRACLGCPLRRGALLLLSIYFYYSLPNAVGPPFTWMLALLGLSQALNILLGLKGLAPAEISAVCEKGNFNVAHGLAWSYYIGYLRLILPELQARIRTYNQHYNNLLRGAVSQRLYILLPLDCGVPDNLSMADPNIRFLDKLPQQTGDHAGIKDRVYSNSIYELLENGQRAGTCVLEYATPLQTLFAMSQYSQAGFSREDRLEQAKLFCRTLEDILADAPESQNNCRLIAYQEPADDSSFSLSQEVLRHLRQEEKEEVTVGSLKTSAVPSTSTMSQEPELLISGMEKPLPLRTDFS

purpurin-18
IC50 [1, 9]: ~10 nM

Asialofetuin: a multi-glycosylated protein [reference compound]
IC50 [2]: 45600 ± 2700 nM | Inhibition of binding of svL4 to ASGPR-1 ([3]; asialofetuin at 75 μM, svL4 0.2 μM): 53%

c[G(2′,5′)p-2′-AHC-A(3′,5′)p] [CDN]
Concentration range needed to detect luciferase activity [4]: micromolar concentrations | Concentration range needed to detect luciferase activity ([4]; listed as cyclic dinucleotides): micromolar range | Kd [5]: ~5000 nM

CC(=O)O[C@H]1C(=O)[C@@]2(C)[C@H]([C@H](OC(=O)c3ccccc3)[C@]3(O)C[C@H](OC(=O)[C@H](O)[C@@H](NC(=O)c4ccccc4)c4ccccc4)C(C)=C1C3(C)C)[C@]1(OC(C)=O)CO[C@@H]1C[C@@H]2O [paclitaxel, reference compound]
Median survival ([6]; single agent, sv6D 0.1 nmol/g, control median end-stage day 122): approximately 141 days | Body weight (ascites accumulation) after two weeks of treatment ([6]; treatment from day 45, sv6D 0.1 nmol/g s.c. alternate days, paclitaxel 18 μg/g i.p. x3): had not significantly increased

chlorin p6
IC50 ([1]; exposed to red light, read-out: IC50 for photosensitized cell killing): 30 nM | IC50 [1, 9]: ~10 nM

svC1: subset of svL4: the N-terminal half of the sequence; does not bind CLEC10A, used as control (VQATQSGGGS)
Change in mature, active peritoneal immune cell populations [7]: did not increase significantly | Binding to ASGPR-1 ([3]; biotinylated tetravalent peptide): near the level of blank wells | Binding to CLEC10A [8]: near the level of blank wells; also recorded: does not bind
